Reference: patent US8288552B2, “Dihydropyridone amidesas P2X7 modulators” (Roche Palo Alto LLC, priority 2008, dated 2012)

What follows are compounds tested against T1, P2X7 (UniProt Q99572) (assay: P2X7 pKi of Table 1).
T1 sequence (Q99572 1-595): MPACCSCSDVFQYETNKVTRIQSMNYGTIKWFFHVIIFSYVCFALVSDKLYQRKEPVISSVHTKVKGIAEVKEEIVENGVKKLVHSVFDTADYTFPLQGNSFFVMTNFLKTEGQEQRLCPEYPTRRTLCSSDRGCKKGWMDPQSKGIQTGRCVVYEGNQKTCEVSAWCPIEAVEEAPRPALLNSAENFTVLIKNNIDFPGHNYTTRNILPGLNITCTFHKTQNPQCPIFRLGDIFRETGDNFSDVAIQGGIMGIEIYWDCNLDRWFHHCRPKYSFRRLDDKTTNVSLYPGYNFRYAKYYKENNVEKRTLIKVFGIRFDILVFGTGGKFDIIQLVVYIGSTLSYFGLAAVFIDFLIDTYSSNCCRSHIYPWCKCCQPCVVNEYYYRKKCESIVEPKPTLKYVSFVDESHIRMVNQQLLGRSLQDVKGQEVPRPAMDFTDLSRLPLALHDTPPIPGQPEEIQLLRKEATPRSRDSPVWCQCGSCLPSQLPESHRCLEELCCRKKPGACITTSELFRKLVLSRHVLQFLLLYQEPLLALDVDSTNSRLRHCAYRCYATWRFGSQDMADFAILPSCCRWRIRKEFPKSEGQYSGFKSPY
Assay type: cell-based
Procedure: Intracellular Calcium Flux (FLIPR) Assay
Compound and Reagent Preparation
Stock solutions of compounds were prepared from powders as a 10 mM DMSO stock solution. These solutions were stored at RT during the two week period of these experiments to prevent freeze-thaw of the DMSO stocks. The DMSO stocks were added to the appropriate assay buffer at a concentration of 10 μM, and then diluted serially to the final concentrations that were tested. […] The aqueous solutions of compounds as well as ATP (Sigma A7699) and BzATP (Sigma B6396) were prepared fresh for each day of experiment.
1321N1 cells stably expressing the full length human P2X7 gene (1321N1-hP2X7) and HEK293 cells stably expressing the full length rat P2X7 gene (HEK293-rP2X7) were obtained from the Roche Cell Culture Facility. 1321N1-hP2X7 cells were grown in Dulbecco's Modified Eagle's Medium (DMEM) high glucose supplemented with 10% FBS and 250 μg/mL G418. HEK293-rP2X7 cells were grown in DMEM/F-12 supplemented with 10% FBS, 1 mM CaCl2, 2 mM MgCl2, 2 mM L-Glutamine and 500 μg/ml G418. Cells were split such that they never became >70% confluent.
Intracellular Calcium Flux (FLIPR)
On the day prior to the experiment, 1321N1-hP2X7 or HEK293-rP2X7 cells were released into suspension with calcium-free PBS+Versene and washed by centrifugation with calcium-free PBS to remove the Versene. Cells were resuspended in growth medium at a density of 2.5×10^5 cells/mL and seeded into black walled, clear bottom 96 well plates (50,000 cells/well) approximately 18 hr prior to intracellular calcium flux experiments.
On the day of the experiment, plates were washed with FLIPR buffer (calcium- and magnesium-free Hank's Balanced Salt Solution (HBSS) supplemented with 10 mM Hepes, 2.5 mM probenecid and 2 mM calcium chloride) using a BIO-TEK 96 channel plate washer and incubated with […] fluo-3 dye at 37° C. for one hr. The dye was then removed by plate washing and the cells were allowed to equilibrate for 20 min at room temperature with antagonist or vehicle (FLIPR buffer). Agonist (100 μM BzATP final concentration for hP2X7; 5 μM BzATP final concentration or rP2X7) was added online with the FLIPR and fluorescence measurements made at 1 sec intervals for 60 sec followed by 3 sec intervals for a further 4 min (5 min total). A final addition of 5 μM ionomycin was made and the maximal BzATP-evoked fluorescence normalized to the maximal ionomycin-evoked fluorescence.

pKi | SMILES
7.595 | Cc1cc(Cl)c(OCCO)cc1NC(=O)C1=CNC(=O)CC1c1cccc(F)c1 (stereo not shown) [Compound 62, 4-(3-Fluoro-phenyl)-6-oxo-1,4,5,6-tetrahydro-pyridine-3-carboxylic acid [4-chloro-5-(2-hydroxy-ethoxy)-2-methyl-phenyl]-amide]
7.425 | CCOc1cc(NC(=O)C2=CNC(=O)CC2c2cccc(F)c2)c(C)cc1Cl (stereo not shown) [Compound 70, 4-(3-Fluoro-phenyl)-6-oxo-1,4,5,6-tetrahydro-pyridine-3-carboxylic acid(4-chloro-5-ethoxy-2-methyl-phenyl)-amide]
6.815 | Cc1cc(Cl)c(OCCO)cc1NC(=O)C1=CNC(=O)C[C@@H]1c1cccc(F)c1 [Compound 71, (R)-4-(3-Fluoro-phenyl)-6-oxo-1,4,5,6-tetrahydro-pyridine-3-carboxylic acid[4-chloro-5-(2-hydroxy-ethoxy)-2-methyl-phenyl]-amide]
7.8375 | Cc1cc(Cl)c(OCCO)cc1NC(=O)C1=CNC(=O)C[C@H]1c1cccc(F)c1 [Compound 72, (S)-4-(3-Fluoro-phenyl)-6-oxo-1,4,5,6-tetrahydro-pyridine-3-carboxylic acid[4-chloro-5-(2-hydroxy-ethoxy)-2-methyl-phenyl]-amide]
6.63 | Cc1cc(Cl)c(OCCO)cc1NC(=O)C1=CNC(=O)C[C@@H]1c1ccc(F)cc1 [Compound 74, (R)-4-(4-Fluoro-phenyl)-6-oxo-1,4,5,6-tetrahydro-pyridine-3-carboxylic acid[4-chloro-5-(2-hydroxy-ethoxy)-2-methyl-phenyl]-amide]
7.375 | Cc1cc(Cl)c(OCC(C)O)cc1NC(=O)C1=CNC(=O)CC1c1cccc(F)c1 (stereo not shown) [Compound 77, 4-(3-Fluoro-phenyl)-6-oxo-1,4,5,6-tetrahydro-pyridine-3-carboxylic acid[4-chloro-5-(2-hydroxy-propoxy)-2-methyl-phenyl]-amide]
7.695 | O=C1C[C@@H](c2cccc(F)c2)C(C(=O)Nc2cc(OCCO)c(Cl)cc2Br)=CN1 [Compound 78, (S)-4-(3-Fluoro-phenyl)-6-oxo-1,4,5,6-tetrahydro-pyridine-3-carboxylic acid[2-bromo-4-chloro-5-(2-hydroxy-ethoxy)-phenyl]-amide]
5.76 | Cc1cc(Cl)c(OCC(O)CO)cc1NC(=O)C1=CNC(=O)C[C@H]1c1cccc(F)c1 (stereo partly drawn) [Compound 81, (S)-4-(3-Fluoro-phenyl)-6-oxo-1,4,5,6-tetrahydro-pyridine-3-carboxylic acid[4-chloro-5-(2,3-dihydroxy-propoxy)-2-methyl-phenyl]-amide]

The next lines start with the compound.

SMILES | pKi
Cc1cccc(NC(=O)C2=CNC(=O)C[C@@H]2c2ccc(F)cc2)c1C [Compound 57, (R)-4-(4-Fluoro-phenyl)-6-oxo-1,4,5,6-tetrahydro-pyridine-3-carboxylic acid (2,3-dimethyl-phenyl)-amide] | 7.405
Cc1cccc(NC(=O)C2=CNC(=O)C[C@H]2c2ccc(F)cc2)c1C [Compound 58, (S)-4-(4-Fluoro-phenyl)-6-oxo-1,4,5,6-tetrahydro-pyridine-3-carboxylic acid (2,3-dimethyl-phenyl)-amide] | 6.785
Cc1cc(C)c(Br)c(NC(=O)C2=CNC(=O)C[C@@H]2c2ccc(F)cc2)c1 [Compound 59, (R)-4-(4-Fluoro-phenyl)-6-oxo-1,4,5,6-tetrahydro-pyridine-3-carboxylic acid(2-bromo-3,5-dimethyl-phenyl)-amide] | 7.57
Cc1cc(C)c(Br)c(NC(=O)C2=CNC(=O)C[C@H]2c2ccc(F)cc2)c1 [Compound 60, (S)-4-(4-Fluoro-phenyl)-6-oxo-1,4,5,6-tetrahydro-pyridine-3-carboxylic acid(2-bromo-3,5-dimethyl-phenyl)-amide] | 6.86
Cc1cc(Cl)c(OCCO)cc1NC(=O)C1=CNC(=O)CC1c1ccc(F)cc1 (stereo not shown) [Compound 61, 4-(4-Fluoro-phenyl)-6-oxo-1,4,5,6-tetrahydro-pyridine-3-carboxylic acid [4-chloro-5-(2-hydroxy-ethoxy)-2-methyl-phenyl]-amide] | 7.755
Cc1cccc(NC(=O)C2=CNC(=O)CC2c2cccc(F)c2)c1C (stereo not shown) [Compound 63, 4-(3-Fluoro-phenyl)-6-oxo-1,4,5,6-tetrahydro-pyridine-3-carboxylic acid(2,3-dimethyl-phenyl)-amide] | 7.405
COc1cc(NC(=O)C2=CNC(=O)CC2c2cccc(F)c2)c(C)cc1F (stereo not shown) [Compound 64, 4-(3-Fluoro-phenyl)-6-oxo-1,4,5,6-tetrahydro-pyridine-3-carboxylic acid(4-fluoro-5-methoxy-2-methyl-phenyl)-amide] | 8.17
O=C1CC(c2ccc(F)cc2)C(C(=O)Nc2cc(OCCO)c(Cl)cc2Br)=CN1 (stereo not shown) [Compound 65, 4-(4-Fluoro-phenyl)-6-oxo-1,4,5,6-tetrahydro-pyridine-3-carboxylic acid[2-bromo-4-chloro-5-(2-hydroxy-ethoxy)-phenyl]-amide] | 6.7
O=C1CC(c2cccc(F)c2)C(C(=O)Nc2cccc3c2CCC3)=CN1 (stereo not shown) [Compound 66, 4-(3-Fluoro-phenyl)-6-oxo-1,4,5,6-tetrahydro-pyridine-3-carboxylic acid indan-4-ylamide] | 6.915
Cc1ccc(S(N)(=O)=O)cc1NC(=O)C1=CNC(=O)CC1c1ccc(F)cc1 (stereo not shown) [Compound 67, 4-(4-Fluoro-phenyl)-6-oxo-1,4,5,6-tetrahydro-pyridine-3-carboxylic acid(2-methyl-5-sulfamoyl-phenyl)-amide] | 5.515
Cc1ccc(C(C)C)cc1NC(=O)C1=CNC(=O)C[C@H]1c1cccc(F)c1 [Compound 69, (S)-4-(3-Fluoro-phenyl)-6-oxo-1,4,5,6-tetrahydro-pyridine-3-carboxylic acid(5-isopropyl-2-methyl-phenyl)-amide] | 7.01
Cc1cc(Cl)c(OCCO)cc1NC(=O)C1=CNC(=O)C[C@H]1c1ccc(F)cc1 [Compound 73, (S)-4-(4-Fluoro-phenyl)-6-oxo-1,4,5,6-tetrahydro-pyridine-3-carboxylic acid[4-chloro-5-(2-hydroxy-ethoxy)-2-methyl-phenyl]-amide] | 7.63
O=C1C[C@H](c2ccc(F)cc2)C(C(=O)Nc2cc(OCCO)c(Cl)cc2Br)=CN1 [Compound 75, (R)-4-(4-Fluoro-phenyl)-6-oxo-1,4,5,6-tetrahydro-pyridine-3-carboxylic acid[2-bromo-4-chloro-5-(2-hydroxy-ethoxy)-phenyl]-amide] | 6.245
O=C1C[C@@H](c2ccc(F)cc2)C(C(=O)Nc2cc(OCCO)c(Cl)cc2Br)=CN1 [Compound 76, (S)-4-(4-Fluoro-phenyl)-6-oxo-1,4,5,6-tetrahydro-pyridine-3-carboxylic acid[2-bromo-4-chloro-5-(2-hydroxy-ethoxy)-phenyl]-amide] | 7.063
COc1cc(C)c(NC(=O)C2=CN(CCO)C(=O)CC2c2ccc(F)cc2)cc1OC (stereo not shown) [Compound 79, 4-(4-Fluoro-phenyl)-1-(2-hydroxy-ethyl)-6-oxo-1,4,5,6-tetrahydro-pyridine-3-carboxylic acid(4,5-dimethoxy-2-methyl-phenyl)-amide] | 7.42
Cc1ccc(C(C)O)cc1NC(=O)C1=CNC(=O)C[C@H]1c1ccc(F)cc1 (stereo partly drawn) [Compound 80, (S)-4-(4-Fluoro-phenyl)-6-oxo-1,4,5,6-tetrahydro-pyridine-3-carboxylic acid[5-(1-hydroxy-ethyl)-2-methyl-phenyl]-amide] | 7.59
COc1cc(NC(=O)C2=CNC(=O)C[C@H]2c2cccc(F)c2)c(C)cc1F [Compound 82, (S)-4-(3-Fluoro-phenyl)-6-oxo-1,4,5,6-tetrahydro-pyridine-3-carboxylic acid(4-fluoro-5-methoxy-2-methyl-phenyl)-amide] | 7.975
